Data on six compounds can be found in patent publication EP3720857B1, “2-OXO-5H-CHROMENO[4,3-B]PYRIDINES FOR USE IN THE TREATMENT OF HEPATITIS B” (Galapagos NV, priority 2017, dated 2019).

For this assay, the system named is hepatitis virus B (HBV) infection. Nature of the assay: HepG2 NTCP assay (HBcAg staining as marker of HBV infection). It counts as cell-based. To be noted: HepG2-NTCP cells infected with HBV, HBV core antigen (HBcAg) as marker of infection. Put shortly:
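HepG2-NTCP cells were infected with HBV (4% PEG, 1% DMSO) in the presence of compound overnight, then re-dosed and incubated 5 days at 37 °C. HBcAg immunofluorescence was imaged, with DAPI nuclei count taken as toxicity. Ten-point 1/3 dilutions gave % inhibition against 0.2% DMSO vehicle and 100 nM Myrcludex B, with dose-response curves fitted.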
One may read the IC50 as the concentration needed to halve the response being measured. A lower IC50 goes with inhibition by little substance. `COCCCOc1cc2c(cc1F)-c1c(cc(C(=O)O)c(=O)n1C1CC1)C(C(C)C)O2` (stereo not drawn) [Compound 1, 1-cyclopropyl-9-fluoro-5-isopropyl-8-(3-methoxypropoxy)-2-oxo-5H-chromeno[4,3-b]pyridine-3-carboxylic acid] came in with an IC50 of 0.001 to 1 nM.
To `COCCCOc1cc2c(cc1Cl)-c1c(cc(C(=O)O)c(=O)n1C1CC1)CO2` [Compound 6, 9-chloro-1-cyclopropyl-8-(3-methoxypropoxy) -2-oxo-5H-chromeno[4,3-b]pyridine-3-carboxylic acid] belongs 0.001 to 1 nM; to `CCC1Oc2cc(OCCCOC)c(F)cc2-c2c1cc(C(=O)O)c(=O)n2C1CC1` (stereo not drawn) [Compound 16, 1-cyclopropyl-5-ethyl-9-fluoro-8-(3-methoxypropoxy) -2-oxo-5H-chromeno[4,3-b]pyridine-3-carboxylic acid], 0.001 to 1 nM; to `COCCCOc1cc2c(cc1Cl)-c1c(cc(C(=O)O)c(=O)n1C1CC1)C(C(C)(C)COC)O2` (stereo not drawn) [Compound 19, 9-chloro-1-cyclopropyl-5-(2-methoxy-1,1-dimethyl-ethyl)-8-(3-methoxypropoxy) -2-oxo-5H-chromeno[4,3-b]pyridine-3-carboxylic acid], 0.001 to 1 nM.
Under `COCCCOc1cc2c(cc1F)-c1c(cc(C(=O)O)c(=O)n1C1CC1)[C@H](C(C)C)O2` [Compound 44, (5S)-1-cyclopropyl-9-fluoro-5-isopropyl-8-(3-methoxypropoxy)-2-oxo-5H-chromeno[4,3-b]pyridine-3-carboxylic acid] stands 0.001 to 1 nM; under `COCCCOc1cc2c(cc1Cl)-c1c(cc(C(=O)O)c(=O)n1C1CC1)[C@H](C1(C)COC1)O2` [Compound 46, (5R)-9-chloro-1-cyclopropyl-8-(3-methoxypropoxy)-5-(3-methyloxetan-3-yl)-2-oxo-5H-chromeno[4,3-b]pyridine-3-carboxylic acid], 0.001 to 1 nM.
